Laboratory results from patent publication EP1582519A2, “Heteropolycyclic compounds and their use as metabotropic glutamate receptor antagonists” (NPS PHARMACEUTICALS, INC., priority 1999, dated 2001).
pIC50: −log10 of the molar value.

Biological target: native receptor, mGluR5d (Rattus norvegicus, UniProt P31424)
Experiment: Antagonist activity on the native receptor mGluR5d
Assay type: cell-based
Procedure: Primary astrocyte cultures were prepared from 3-5 day old Sprague-Dawley rat pups using a modification of Miller (Miller et al, J. Neuroscience, 15(9): 6103-6109, 1995). In brief, primary cultures were plated on poly-L lysine coated flasks in Dulbecco's modified Eagle's medium (DMEM) containing fetal calf serum (FCS). After 6 days, cell cultures were shaken over night at 280 rpm, then transferred to astrocyte-defined media (ADM) containing growth factors that up-regulate the expression of mGluR5 (Miller et al., 1995). […] For FLIPR analysis, cells were seeded on poly-D lysine coated clear bottom 96-well plates with black sides and analysis of [Ca^2+]i mobilization was performed 3 days following the growth factor up-regulation. Cell cultures in the 96-well plates were loaded with a 4 µM solution of acetoxymethyl ester form of the fluorescent calcium indicator fluo-3 (Molecular Probes, Eugene, Oregon) in 0.01 % pluronic. All assays were performed in a buffer containing 127 mM NaCl, 5 mM KCl, 2 mM MgCl2, 0.7 mM NaH2PO4, 2 mM CaCl2, 0.422 mg/ml NaHCO3, 2.4 mg/ml HEPES, 1.8 mg/ml glucose and 1 mg/ml BSA Fraction IV (pH 7.4). […] After each addition the fluorescence signal was sampled 50 times at 1 second intervals followed by 3 samples at 5 second intervals. Responses were measured as the peak height of the response within the sample period. […]

Sequence of native receptor, mGluR5d (P31424 21-1203): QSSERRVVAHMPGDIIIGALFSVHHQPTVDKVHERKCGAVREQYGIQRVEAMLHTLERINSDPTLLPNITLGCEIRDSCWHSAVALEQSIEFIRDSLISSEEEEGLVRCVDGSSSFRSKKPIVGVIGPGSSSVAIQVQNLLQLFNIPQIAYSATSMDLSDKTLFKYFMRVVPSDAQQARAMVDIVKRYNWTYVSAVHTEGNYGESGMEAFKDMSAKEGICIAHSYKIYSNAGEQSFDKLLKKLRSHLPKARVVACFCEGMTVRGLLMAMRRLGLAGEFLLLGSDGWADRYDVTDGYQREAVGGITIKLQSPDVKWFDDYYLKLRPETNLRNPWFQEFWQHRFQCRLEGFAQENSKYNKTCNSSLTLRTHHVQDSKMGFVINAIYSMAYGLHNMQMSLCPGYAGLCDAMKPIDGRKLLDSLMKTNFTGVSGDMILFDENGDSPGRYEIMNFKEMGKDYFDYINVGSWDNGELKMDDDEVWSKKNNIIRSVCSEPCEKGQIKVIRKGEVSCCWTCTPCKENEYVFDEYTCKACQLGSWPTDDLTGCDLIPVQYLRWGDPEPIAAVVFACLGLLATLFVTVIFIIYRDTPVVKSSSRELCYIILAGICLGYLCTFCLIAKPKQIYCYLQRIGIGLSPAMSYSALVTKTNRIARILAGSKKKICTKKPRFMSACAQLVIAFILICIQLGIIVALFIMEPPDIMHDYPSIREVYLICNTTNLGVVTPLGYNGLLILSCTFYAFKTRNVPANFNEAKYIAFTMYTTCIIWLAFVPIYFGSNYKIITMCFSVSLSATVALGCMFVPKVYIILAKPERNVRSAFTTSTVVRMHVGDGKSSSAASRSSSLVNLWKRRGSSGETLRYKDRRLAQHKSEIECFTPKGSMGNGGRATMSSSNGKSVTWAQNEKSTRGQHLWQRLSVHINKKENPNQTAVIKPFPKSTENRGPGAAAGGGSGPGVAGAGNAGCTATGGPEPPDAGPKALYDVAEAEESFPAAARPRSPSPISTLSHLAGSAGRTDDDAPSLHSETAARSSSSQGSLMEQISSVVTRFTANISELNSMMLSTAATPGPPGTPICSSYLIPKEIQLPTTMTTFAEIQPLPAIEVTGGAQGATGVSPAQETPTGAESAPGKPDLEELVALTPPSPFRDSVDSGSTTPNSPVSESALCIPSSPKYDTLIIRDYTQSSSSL

`N#Cc1cccc(-c2nc(-c3ccccn3)co2)c1` [B52, 2-[3-cyanophenyl]-4-[pyridin-2-yl]-1,3-oxazole] was tested, and the pIC50 was 7.13.
`N#Cc1cccc(-c2nc(-c3ccccn3)no2)c1` [B21, 3-(2-pyridyl)-5-(3-cyanophenyl)-1,2,4-oxadiazole] gave a pIC50 of 6.92.
